# Publication PMC5218480 (PLoS ONE, 2017)
# Tested on: MV-4-11 cells
# Experiment: Gene expression microarray analysis (Affymetrix PrimeView) and GSEA
# Assay type: cell-based, human
# Parameters: RFU PODN (11730768_x_at) / Fold change /veh PODN (11730768_x_at) / RFU LINC00158 (11744669_a_at) / Fold change /veh LINC00158 (11744669_a_at) / RFU DUSP10 (11751237_a_at) / Fold change /veh DUSP10 (11751237_a_at) / RFU ID3 (11757404_x_at) / Fold change /veh ID3 (11757404_x_at) / RFU PLEKHG5 (11737974_s_at) / Fold change /veh PLEKHG5 (11737974_s_at) / RFU LRRC4B (11730491_at) / Fold change /veh LRRC4B (11730491_at) / RFU GIMAP4 (11747438_a_at) / Fold change /veh GIMAP4 (11747438_a_at) / RFU KRT8 (11758183_x_at) / Fold change /veh KRT8 (11758183_x_at) / RFU CNN1 (11734310_a_at) / Fold change /veh CNN1 (11734310_a_at) / RFU VPS37D (11726825_at) / Fold change /veh VPS37D (11726825_at) / RFU C10orf10 (11716522_x_at) / Fold change /veh C10orf10 (11716522_x_at) / RFU KIR2DL2 /// KIR2DL4 /// KIR2DL5A /// KIR2DL5B /// KIR2DS1 /// KIR2DS2 /// KIR2DS3 /// KIR2DS4 /// KIR3DL3 /// KIR3DL3 /// KIR3DS1 (11738374_at) / Fold change /veh KIR2DL2 /// KIR2DL4 /// KIR2DL5A /// KIR2DL5B /// KIR2DS1 /// KIR2DS2 /// KIR2DS3 /// KIR2DS4 /// KIR3DL3 /// KIR3DL3 /// KIR3DS1 (11738374_at) / RFU C1QL1 (11718748_at) / Fold change /veh C1QL1 (11718748_at) / RFU TMPRSS4 (11747572_a_at) / Fold change /veh TMPRSS4 (11747572_a_at) / RFU HAMP (11756126_x_at) / Fold change /veh HAMP (11756126_x_at) / RFU RNFT2 (11725882_a_at) / Fold change /veh RNFT2 (11725882_a_at) / RFU NR4A2 (11747474_a_at) / Fold change /veh NR4A2 (11747474_a_at) / RFU ABCC12 (11746883_a_at) / Fold change /veh ABCC12 (11746883_a_at) / RFU TMEM136 (11760407_x_at) / Fold change /veh TMEM136 (11760407_x_at) / RFU CLDN22 /// WWC2 (11732394_at) / Fold change /veh CLDN22 /// WWC2 (11732394_at) / RFU HLA-DPB1 (11760878_x_at) / Fold change /veh HLA-DPB1 (11760878_x_at) / RFU SPINT1 (11716480_a_at) / Fold change /veh SPINT1 (11716480_a_at) / RFU GAP43 (11754022_s_at) / Fold change /veh GAP43 (11754022_s_at) / RFU A4GNT (11735810_at) / Fold change /veh A4GNT (11735810_at) / RFU PRB3 (11715151_x_at) / Fold change /veh PRB3 (11715151_x_at) / RFU TUBB4B (11761932_at) / Fold change /veh TUBB4B (11761932_at) / RFU CAPN14 (11732068_a_at) / Fold change /veh CAPN14 (11732068_a_at) / RFU TMCC2 (11721928_a_at) / Fold change /veh TMCC2 (11721928_a_at) / RFU IRGQ (11745062_a_at) / Fold change /veh IRGQ (11745062_a_at) / RFU FAM174B (11720279_a_at) / Fold change /veh FAM174B (11720279_a_at) / RFU TMPRSS4 (11748680_a_at) / Fold change /veh TMPRSS4 (11748680_a_at) / RFU FAM212B (11763350_a_at) / Fold change /veh FAM212B (11763350_a_at) / RFU PLEKHG5 (11743358_a_at) / Fold change /veh PLEKHG5 (11743358_a_at) / RFU ZSCAN30 (11745921_a_at) / Fold change /veh ZSCAN30 (11745921_a_at) / RFU CMKLR1 (11741424_a_at) / Fold change /veh CMKLR1 (11741424_a_at) / RFU LOC101060620 /// MAPK8IP1 (11723275_at) / Fold change /veh LOC101060620 /// MAPK8IP1 (11723275_at) / RFU SPTSSB (11747773_x_at) / Fold change /veh SPTSSB (11747773_x_at) / RFU PRSS12 (11739890_at) / Fold change /veh PRSS12 (11739890_at) / RFU BIN1 (11741810_x_at) / Fold change /veh BIN1 (11741810_x_at) / RFU WNT11 (11732464_a_at) / Fold change /veh WNT11 (11732464_a_at) / RFU C10orf10 (11716521_a_at) / Fold change /veh C10orf10 (11716521_a_at) / RFU C5orf56 (11738089_at) / Fold change /veh C5orf56 (11738089_at) / RFU CYB561 (11721691_x_at) / Fold change /veh CYB561 (11721691_x_at) / RFU ANKRD19P (11752326_a_at) / Fold change /veh ANKRD19P (11752326_a_at) / RFU OR2T12 /// OR2T33 /// OR2T8 (11738714_s_at) / Fold change /veh OR2T12 /// OR2T33 /// OR2T8 (11738714_s_at) / RFU VCAN (11748164_a_at) / Fold change /veh VCAN (11748164_a_at) / RFU JSRP1 (11732532_at) / Fold change /veh JSRP1 (11732532_at) / RFU KRTAP10-11 (11738290_x_at) / Fold change /veh KRTAP10-11 (11738290_x_at) / RFU MYO3A (11730013_a_at) / Fold change /veh MYO3A (11730013_a_at) / RFU EBF3 (11725865_a_at) / Fold change /veh EBF3 (11725865_a_at) / RFU CAMK2N1 (11719241_x_at) / Fold change /veh CAMK2N1 (11719241_x_at) / RFU C5orf56 (11738088_a_at) / Fold change /veh C5orf56 (11738088_a_at) / RFU OLFML3 (11715873_a_at) / Fold change /veh OLFML3 (11715873_a_at) / RFU LOC100653217 /// NTM (11731650_a_at) / Fold change /veh LOC100653217 /// NTM (11731650_a_at) / RFU MAPK11 (11762145_a_at) / Fold change /veh MAPK11 (11762145_a_at) / RFU FIZ1 (11724087_x_at) / Fold change /veh FIZ1 (11724087_x_at) / RFU OASL (11726364_x_at) / Fold change /veh OASL (11726364_x_at) / RFU SOX15 (11748057_x_at) / Fold change /veh SOX15 (11748057_x_at) / RFU CD79A (11719716_a_at) / Fold change /veh CD79A (11719716_a_at) / RFU HIST1H1D (11736915_at) / Fold change /veh HIST1H1D (11736915_at) / RFU CASKIN2 (11723855_a_at) / Fold change /veh CASKIN2 (11723855_a_at) / RFU LOC730098 (11760151_x_at) / Fold change /veh LOC730098 (11760151_x_at) / RFU OR4N2 (11742367_at) / Fold change /veh OR4N2 (11742367_at) / RFU PRRT2 (11749266_a_at) / Fold change /veh PRRT2 (11749266_a_at) / RFU SNX32 (11753110_a_at) / Fold change /veh SNX32 (11753110_a_at) / RFU CDHR5 (11726645_a_at) / Fold change /veh CDHR5 (11726645_a_at) / RFU RCAN1 (11760418_a_at) / Fold change /veh RCAN1 (11760418_a_at) / RFU FAM167A (11723789_a_at) / Fold change /veh FAM167A (11723789_a_at) / RFU FAM26E (11764081_at) / Fold change /veh FAM26E (11764081_at) / RFU ISYNA1 (11749810_s_at) / Fold change /veh ISYNA1 (11749810_s_at) / RFU ACY1 (11761880_at) / Fold change /veh ACY1 (11761880_at) / RFU 11764098_at / Fold change /veh 11764098_at / RFU SAMD14 (11745864_x_at) / Fold change /veh SAMD14 (11745864_x_at) / RFU NPB (11741838_a_at) / Fold change /veh NPB (11741838_a_at) / RFU TMPRSS6 (11731388_a_at) / Fold change /veh TMPRSS6 (11731388_a_at) / RFU KRTAP10-2 (11738614_at) / Fold change /veh KRTAP10-2 (11738614_at) / RFU ARHGAP8 /// PRR5-ARHGAP8 (11727945_x_at) / Fold change /veh ARHGAP8 /// PRR5-ARHGAP8 (11727945_x_at) / RFU KRTAP5-7 /// NADSYN1 (11734609_at) / Fold change /veh KRTAP5-7 /// NADSYN1 (11734609_at) / RFU RASL12 (11751679_a_at) / Fold change /veh RASL12 (11751679_a_at) / RFU CDKN2B (11736163_a_at) / Fold change /veh CDKN2B (11736163_a_at) / RFU PRF1 (11729649_at) / Fold change /veh PRF1 (11729649_at) / RFU, ZNF638 /// ZNF638-IT1 / Fold change vs veh, ZNF638 /// ZNF638-IT1 / RFU, PANK3 / Fold change vs veh, PANK3 / RFU, SH3YL1 / Fold change vs veh, SH3YL1 / RFU, ZEB2 / Fold change vs veh, ZEB2 / RFU, NRIP1 / Fold change vs veh, NRIP1 / RFU, PTTG1IP / Fold change vs veh, PTTG1IP / RFU, CAPN2 / Fold change vs veh, CAPN2 / RFU, MED14 / Fold change vs veh, MED14 / RFU, SNORA58 / Fold change vs veh, SNORA58 / RFU, C1orf63 / Fold change vs veh, C1orf63 / RFU, LRRFIP1 / Fold change vs veh, LRRFIP1 / RFU, NDUFAF7 / Fold change vs veh, NDUFAF7 / RFU, SLC12A2 / Fold change vs veh, SLC12A2 / RFU, IBTK / Fold change vs veh, IBTK / RFU, ESF1 / Fold change vs veh, ESF1 / Fold change vs veh, TMEM50B / RFU, TAOK1 / Fold change vs veh, TAOK1 / RFU, ACBD3 / Fold change vs veh, ACBD3 / RFU, TMA16 / Fold change vs veh, TMA16 / RFU, RWDD3 / Fold change vs veh, RWDD3 / RFU, BCAT1 / Fold change vs veh, BCAT1 / RFU, EDEM3 / Fold change vs veh, EDEM3 / RFU, TMEM33 / Fold change vs veh, TMEM33 / RFU, WDR75 / Fold change vs veh, WDR75 / RFU, AHCTF1 / Fold change vs veh, AHCTF1 / RFU, TFRC / Fold change vs veh, TFRC / RFU, ZDHHC17 / Fold change vs veh, ZDHHC17 / RFU, NOM1 / Fold change vs veh, NOM1 / RFU, ARL8B / Fold change vs veh, ARL8B / RFU, ZBTB11 / Fold change vs veh, ZBTB11 / RFU, TAMM41 / Fold change vs veh, TAMM41 / RFU, KIAA1704 /// LOC100996395 / Fold change vs veh, KIAA1704 /// LOC100996395 / RFU, ING1 / Fold change vs veh, ING1 / RFU, TRMT61B / Fold change vs veh, TRMT61B / RFU, FUBP3 / Fold change vs veh, FUBP3 / RFU, TP53 / Fold change vs veh, TP53 / RFU, TNKS2 / Fold change vs veh, TNKS2 / RFU, ZFP14 / Fold change vs veh, ZFP14 / RFU, ACTR2 / Fold change vs veh, ACTR2 / RFU, PPP3R1 / Fold change vs veh, PPP3R1 / RFU, PIK3R1 / Fold change vs veh, PIK3R1 / RFU, HNRNPA1 / Fold change vs veh, HNRNPA1 / RFU, RNF170 / Fold change vs veh, RNF170 / RFU, ZNF28 / Fold change vs veh, ZNF28 / RFU, RNGTT / Fold change vs veh, RNGTT / RFU, OGT / Fold change vs veh, OGT / RFU, BRD1 / Fold change vs veh, BRD1 / RFU, MARS / Fold change vs veh, MARS / RFU, ZNF655 / Fold change vs veh, ZNF655 / RFU, FAHD1 / Fold change vs veh, FAHD1 / RFU, BDP1 / Fold change vs veh, BDP1 / RFU, LRRCC1 / Fold change vs veh, LRRCC1 / RFU, ARID1A / Fold change vs veh, ARID1A / RFU, ZNF146 / Fold change vs veh, ZNF146 / RFU, ZNF330 / Fold change vs veh, ZNF330 / RFU, GPN3 / Fold change vs veh, GPN3 / RFU, C9orf123 / Fold change vs veh, C9orf123 / RFU, N4BP2L2 / Fold change vs veh, N4BP2L2 / RFU, ARFIP1 / Fold change vs veh, ARFIP1 / RFU, FAM179B / Fold change vs veh, FAM179B / RFU, BCL10 / Fold change vs veh, BCL10 / RFU, UHRF1BP1L / Fold change vs veh, UHRF1BP1L / RFU, BET1 / Fold change vs veh, BET1 / RFU, CNOT2 / Fold change vs veh, CNOT2 / RFU, ZNF268 / Fold change vs veh, ZNF268 / Fold change vs veh, ZNF507 / RFU, DGCR2 / Fold change vs veh, DGCR2 / RFU, WDSUB1 / Fold change vs veh, WDSUB1 / Fold change vs veh, HSP90B1 /// MIR3652 / RFU, ADSS / Fold change vs veh, ADSS / RFU, GK / Fold change vs veh, GK / RFU, ZNF148 / Fold change vs veh, ZNF148 / RFU, TAF9 / Fold change vs veh, TAF9 / RFU, SLC1A5 / Fold change vs veh, SLC1A5 / RFU, SLMO2 / Fold change vs veh, SLMO2 / RFU, ABCC4 / Fold change vs veh, ABCC4 / RFU, LOC101060439 /// RAP1B / Fold change vs veh, LOC101060439 /// RAP1B / RFU, RFX7 / Fold change vs veh, RFX7 / RFU, GTPBP10 / Fold change vs veh, GTPBP10 / RFU, CNEP1R1 / Fold change vs veh, CNEP1R1 / RFU, BIVM-ERCC5 /// ERCC5 / Fold change vs veh, BIVM-ERCC5 /// ERCC5 / RFU, ILF3 / Fold change vs veh, ILF3 / RFU 11762660_at / Fold change /veh 11762660_at / RFU VCAN (11757783_s_at) / Fold change /veh VCAN (11757783_s_at) / RFU DDX43 (11728927_at) / Fold change /veh DDX43 (11728927_at) / RFU KRT8 (11758188_x_at) / Fold change /veh KRT8 (11758188_x_at) / RFU NKD1 (11759106_at) / Fold change /veh NKD1 (11759106_at) / RFU SRD5A1 (11742802_a_at) / Fold change /veh SRD5A1 (11742802_a_at) / RFU TPSAB1 /// TPSB2 (11721975_s_at) / Fold change /veh TPSAB1 /// TPSB2 (11721975_s_at) / RFU GSTM3 (11746129_a_at) / Fold change /veh GSTM3 (11746129_a_at) / RFU IL23R (11737362_x_at) / Fold change /veh IL23R (11737362_x_at) / RFU TMEM51 (11727254_a_at) / Fold change /veh TMEM51 (11727254_a_at) / RFU PIWIL2 (11732686_x_at) / Fold change /veh PIWIL2 (11732686_x_at) / RFU ORM1 (11744905_x_at) / Fold change /veh ORM1 (11744905_x_at) / RFU CCDC152 (11743942_at) / Fold change /veh CCDC152 (11743942_at) / RFU ECM1 (11717891_a_at) / Fold change /veh ECM1 (11717891_a_at) / RFU IL23R (11748794_a_at) / Fold change /veh IL23R (11748794_a_at) / RFU TNFAIP8L3 (11732012_x_at) / Fold change /veh TNFAIP8L3 (11732012_x_at) / RFU MBOAT4 (11741988_at) / Fold change /veh MBOAT4 (11741988_at) / RFU 11764193_at / Fold change /veh 11764193_at / RFU TMEM53 (11763286_at) / Fold change /veh TMEM53 (11763286_at) / RFU MAGEB2 (11727129_at) / Fold change /veh MAGEB2 (11727129_at) / RFU TMEM200A (11744735_a_at) / Fold change /veh TMEM200A (11744735_a_at) / RFU CCDC152 (11751479_a_at) / Fold change /veh CCDC152 (11751479_a_at) / RFU FAM211A (11726209_a_at) / Fold change /veh FAM211A (11726209_a_at) / RFU RGS16 (11746705_a_at) / Fold change /veh RGS16 (11746705_a_at) / RFU VCAN (11755009_s_at) / Fold change /veh VCAN (11755009_s_at) / RFU RHOB (11743442_s_at) / Fold change /veh RHOB (11743442_s_at) / RFU RGS16 (11720943_a_at) / Fold change /veh RGS16 (11720943_a_at) / RFU RGS16 (11720944_at) / Fold change /veh RGS16 (11720944_at) / RFU, VPS4B / Fold change vs veh, VPS4B / RFU, CREB1 / Fold change vs veh, CREB1 / RFU, DNAJC13 / Fold change vs veh, DNAJC13 / RFU, GNAQ / Fold change vs veh, GNAQ / RFU, CDK5R1 / Fold change vs veh, CDK5R1 / RFU, ZRANB3 / Fold change vs veh, ZRANB3 / RFU, CUL4A / Fold change vs veh, CUL4A / RFU, CCNY / Fold change vs veh, CCNY / RFU, UFL1 / Fold change vs veh, UFL1 / RFU, COG3 / Fold change vs veh, COG3 / RFU, DIAPH2 / Fold change vs veh, DIAPH2 / RFU, SKA2 / Fold change vs veh, SKA2 / RFU, AFF3 / Fold change vs veh, AFF3 / RFU, LMF1 / Fold change vs veh, LMF1 / RFU, IPO11 / Fold change vs veh, IPO11 / RFU, DFFB / Fold change vs veh, DFFB / RFU, FOXP1 / Fold change vs veh, FOXP1 / RFU, CARD8 / Fold change vs veh, CARD8 / RFU, STRN3 / Fold change vs veh, STRN3 / RFU, ADK / Fold change vs veh, ADK / RFU, RASSF2 / Fold change vs veh, RASSF2 / RFU, WIPF1 / Fold change vs veh, WIPF1 / RFU, LARP1B / Fold change vs veh, LARP1B / RFU, RASA1 / Fold change vs veh, RASA1 / RFU, RB1 / Fold change vs veh, RB1 / RFU, PPFIA1 / Fold change vs veh, PPFIA1 / RFU, MAT2A / Fold change vs veh, MAT2A / RFU, CCT5 / Fold change vs veh, CCT5 / RFU, WDR92 / Fold change vs veh, WDR92 / RFU, CUX1 / Fold change vs veh, CUX1 / RFU, TTC7A / Fold change vs veh, TTC7A / RFU, TMEM135 / Fold change vs veh, TMEM135 / RFU, DEPTOR / Fold change vs veh, DEPTOR / RFU, CPM / Fold change vs veh, CPM / RFU, DNAJB6 / Fold change vs veh, DNAJB6 / RFU, CACNA2D3 / Fold change vs veh, CACNA2D3 / RFU, DTX4 / Fold change vs veh, DTX4 / RFU, TFCP2 / Fold change vs veh, TFCP2 / RFU, GMCL1 /// GMCL1P1 / Fold change vs veh, GMCL1 /// GMCL1P1 / RFU, AEBP2 / Fold change vs veh, AEBP2 / RFU, SNHG1 /// SNORD22 /// SNORD25 /// SNORD26 /// SNORD27 /// SNORD28 /// SNORD29 /// SNORD31 / Fold change vs veh, SNHG1 /// SNORD22 /// SNORD25 /// SNORD26 /// SNORD27 /// SNORD28 /// SNORD29 /// SNORD31 / Fold change (Aza/veh), C12orf56 (ProbeSet 11735607_a_at) / Fold change (ACY-1035/veh), C12orf56 (ProbeSet 11735607_a_at) / Fold change (Aza/veh), FGFR1OP (ProbeSet 11751329_s_at) / Fold change (ACY-1035/veh), FGFR1OP (ProbeSet 11751329_s_at) / Fold change (Aza/veh), VPS36 (ProbeSet 11739960_a_at) / Fold change (ACY-1035/veh), VPS36 (ProbeSet 11739960_a_at) / RFU SYPL1 (11715823_x_at) / Fold change /veh SYPL1 (11715823_x_at) / RFU IGFBP7 (11715501_s_at) / Fold change /veh IGFBP7 (11715501_s_at) / RFU REEP3 (11722064_at) / Fold change /veh REEP3 (11722064_at) / RFU IGLL1 (11728026_x_at) / Fold change /veh IGLL1 (11728026_x_at): dose or concentration left out as unconfirmed
# Details: ProbeSet 11731583_a_at; LIST D
smiles,measurement,value
Nc1ncn([C@@H]2O[C@H](CO)[C@@H](O)[C@H]2O)c(=O)n1 [azacitidine],"RFU, LARP1B",75.03 RFU
